Data as given in ChEMBL document CHEMBL1201862, “PubChem BioAssay data set” (2004).
Activity calls are given as the source filed them.

Tests used:
[1] = molecular target: T1, High affinity choline transporter 1 (Homo sapiens, UniProt Q9GZV3); experiment: CHT inhibitors, dose response, cell-based, 5-point CRC, membrane potential dye (AID 504840); type: functional
T1 sequence (Q9GZV3 whole entry): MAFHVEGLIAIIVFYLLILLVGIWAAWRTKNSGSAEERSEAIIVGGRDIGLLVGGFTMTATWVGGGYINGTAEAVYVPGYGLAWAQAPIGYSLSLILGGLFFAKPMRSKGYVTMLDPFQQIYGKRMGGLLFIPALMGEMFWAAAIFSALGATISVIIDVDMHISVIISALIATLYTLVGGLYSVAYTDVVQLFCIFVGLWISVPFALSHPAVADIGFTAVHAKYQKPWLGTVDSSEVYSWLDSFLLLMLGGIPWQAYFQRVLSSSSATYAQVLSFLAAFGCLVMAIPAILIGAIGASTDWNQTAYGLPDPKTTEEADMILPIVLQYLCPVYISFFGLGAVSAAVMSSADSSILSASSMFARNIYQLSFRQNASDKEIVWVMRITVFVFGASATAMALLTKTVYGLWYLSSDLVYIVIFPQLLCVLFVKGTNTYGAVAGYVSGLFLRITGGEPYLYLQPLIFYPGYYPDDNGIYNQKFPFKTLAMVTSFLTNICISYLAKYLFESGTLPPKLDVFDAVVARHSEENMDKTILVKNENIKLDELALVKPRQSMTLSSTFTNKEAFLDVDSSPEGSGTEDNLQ

[2] = molecular target: T1, High affinity choline transporter 1; experiment: CHT inhibitors, dose response, cell-based, 10-point CRC, membrane potential dye (AID 588401); type: functional;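 further: membrane potential dye fluorescence of choline-evoked depolarization via CHT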
[3] = molecular target: Voltage-dependent T-type calcium channel subunit alpha-1H (Homo sapiens, UniProt O95180); type: functional;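 further: channel activity triggered by adding a high calcium stimulation buffer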
Sequence of Voltage-dependent T-type calcium channel subunit alpha-1H (O95180 whole entry): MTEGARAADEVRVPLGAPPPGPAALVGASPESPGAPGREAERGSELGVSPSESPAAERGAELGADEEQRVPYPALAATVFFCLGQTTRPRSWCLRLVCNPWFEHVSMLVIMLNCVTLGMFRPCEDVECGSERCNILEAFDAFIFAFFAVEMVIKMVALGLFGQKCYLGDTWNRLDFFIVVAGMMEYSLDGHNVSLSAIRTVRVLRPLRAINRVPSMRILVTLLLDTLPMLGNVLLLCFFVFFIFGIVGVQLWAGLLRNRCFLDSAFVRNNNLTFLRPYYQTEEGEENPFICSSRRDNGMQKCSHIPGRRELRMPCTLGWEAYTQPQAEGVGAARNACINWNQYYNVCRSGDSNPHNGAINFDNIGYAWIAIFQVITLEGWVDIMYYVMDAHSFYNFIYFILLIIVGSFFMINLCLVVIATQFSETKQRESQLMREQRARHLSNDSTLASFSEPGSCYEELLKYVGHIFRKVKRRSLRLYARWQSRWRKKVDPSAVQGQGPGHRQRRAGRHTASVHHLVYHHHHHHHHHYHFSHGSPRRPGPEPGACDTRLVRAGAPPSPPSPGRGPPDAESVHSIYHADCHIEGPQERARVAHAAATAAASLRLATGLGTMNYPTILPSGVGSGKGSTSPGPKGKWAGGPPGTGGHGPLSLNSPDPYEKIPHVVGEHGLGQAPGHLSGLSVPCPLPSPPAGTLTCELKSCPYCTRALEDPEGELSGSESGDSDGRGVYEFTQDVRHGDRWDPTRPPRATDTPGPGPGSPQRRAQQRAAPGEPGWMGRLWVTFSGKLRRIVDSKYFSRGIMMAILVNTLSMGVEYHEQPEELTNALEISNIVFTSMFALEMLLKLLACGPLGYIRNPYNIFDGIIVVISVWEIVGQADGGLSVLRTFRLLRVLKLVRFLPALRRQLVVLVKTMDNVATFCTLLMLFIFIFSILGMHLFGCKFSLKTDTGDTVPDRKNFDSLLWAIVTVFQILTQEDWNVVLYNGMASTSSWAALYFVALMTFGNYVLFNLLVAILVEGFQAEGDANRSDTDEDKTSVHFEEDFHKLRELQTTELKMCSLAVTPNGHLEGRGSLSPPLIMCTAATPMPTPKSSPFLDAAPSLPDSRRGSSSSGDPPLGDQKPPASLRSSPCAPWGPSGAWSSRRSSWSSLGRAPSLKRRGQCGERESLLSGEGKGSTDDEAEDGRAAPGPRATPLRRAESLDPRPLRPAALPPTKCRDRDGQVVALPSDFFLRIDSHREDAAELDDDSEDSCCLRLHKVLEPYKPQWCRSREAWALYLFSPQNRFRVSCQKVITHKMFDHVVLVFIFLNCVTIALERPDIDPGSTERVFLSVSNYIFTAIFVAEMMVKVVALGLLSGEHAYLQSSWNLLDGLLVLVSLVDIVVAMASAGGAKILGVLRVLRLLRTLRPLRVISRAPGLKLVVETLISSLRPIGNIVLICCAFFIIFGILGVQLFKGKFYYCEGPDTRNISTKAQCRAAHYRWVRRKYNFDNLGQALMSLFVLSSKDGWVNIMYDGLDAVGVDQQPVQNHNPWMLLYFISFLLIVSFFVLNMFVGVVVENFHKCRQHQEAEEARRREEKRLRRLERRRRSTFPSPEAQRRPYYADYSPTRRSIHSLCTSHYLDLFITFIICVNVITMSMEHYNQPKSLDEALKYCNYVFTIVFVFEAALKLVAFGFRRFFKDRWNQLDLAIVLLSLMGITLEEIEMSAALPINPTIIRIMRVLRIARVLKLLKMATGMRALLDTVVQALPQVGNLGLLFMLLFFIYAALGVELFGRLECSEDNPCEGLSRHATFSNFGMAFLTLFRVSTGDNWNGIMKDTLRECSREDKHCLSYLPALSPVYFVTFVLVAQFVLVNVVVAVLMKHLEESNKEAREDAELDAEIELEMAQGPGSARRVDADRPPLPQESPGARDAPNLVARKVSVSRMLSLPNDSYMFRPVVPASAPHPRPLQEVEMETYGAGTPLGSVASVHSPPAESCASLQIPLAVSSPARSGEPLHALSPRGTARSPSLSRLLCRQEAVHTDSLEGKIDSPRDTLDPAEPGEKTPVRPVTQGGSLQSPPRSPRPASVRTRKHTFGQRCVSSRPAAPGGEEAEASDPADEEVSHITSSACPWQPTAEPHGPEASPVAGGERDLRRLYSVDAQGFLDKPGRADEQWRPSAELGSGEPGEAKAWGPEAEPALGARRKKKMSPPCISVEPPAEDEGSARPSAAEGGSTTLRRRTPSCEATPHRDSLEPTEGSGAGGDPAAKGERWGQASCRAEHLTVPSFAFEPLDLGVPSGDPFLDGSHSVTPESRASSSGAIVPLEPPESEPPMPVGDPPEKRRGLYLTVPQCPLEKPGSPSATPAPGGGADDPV

[4] = molecular target: Tyrosine-protein phosphatase non-receptor type 5 (Homo sapiens, UniProt P54829); experiment: STEP phosphatase inhibitors, confirmation, biochemical, fluorescence intensity, uHTS hits (AID 602372); type: functional; settings: read-out: IC50_Mean
[5] = molecular target: Dual specificity protein phosphatase 3 (Homo sapiens, UniProt P51452); experiment: VHR phosphatase inhibition, dose response, selectivity assay for STEP inhibitor project, biochemical (AID 602374); type: functional; settings: read-out: IC50_Mean
Sequence of Dual specificity protein phosphatase 3 (P51452 whole entry): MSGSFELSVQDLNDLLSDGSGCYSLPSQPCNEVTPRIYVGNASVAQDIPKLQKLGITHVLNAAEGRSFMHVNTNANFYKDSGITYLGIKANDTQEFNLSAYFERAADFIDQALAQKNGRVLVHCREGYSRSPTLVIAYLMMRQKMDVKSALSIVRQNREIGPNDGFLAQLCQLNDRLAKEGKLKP

[6] = molecular target: Tyrosine-protein phosphatase non-receptor type 11 (Homo sapiens, UniProt Q06124); experiment: SHP2 phosphatase inhibition, dose response, selectivity assay for STEP inhibitor project, biochemical (AID 602367); type: functional; settings: read-out: IC50_Mean
Sequence of Tyrosine-protein phosphatase non-receptor type 11 (Q06124 whole entry): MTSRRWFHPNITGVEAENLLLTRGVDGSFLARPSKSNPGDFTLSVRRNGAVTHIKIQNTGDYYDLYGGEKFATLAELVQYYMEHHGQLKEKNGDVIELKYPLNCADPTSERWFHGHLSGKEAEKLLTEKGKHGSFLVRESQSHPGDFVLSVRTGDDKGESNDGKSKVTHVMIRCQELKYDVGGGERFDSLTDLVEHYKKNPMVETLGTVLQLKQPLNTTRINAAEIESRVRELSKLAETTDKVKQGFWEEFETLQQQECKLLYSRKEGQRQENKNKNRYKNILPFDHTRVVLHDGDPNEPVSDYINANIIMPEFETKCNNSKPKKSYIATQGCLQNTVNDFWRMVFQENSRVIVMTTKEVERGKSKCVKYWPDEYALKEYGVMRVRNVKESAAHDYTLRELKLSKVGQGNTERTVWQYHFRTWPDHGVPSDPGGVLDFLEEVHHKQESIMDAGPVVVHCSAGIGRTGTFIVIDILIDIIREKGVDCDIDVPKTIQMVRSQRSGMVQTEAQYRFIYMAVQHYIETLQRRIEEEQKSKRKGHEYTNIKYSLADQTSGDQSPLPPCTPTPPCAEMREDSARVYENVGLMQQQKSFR

Phospholipase A2 = Phospholipase A2 (Homo sapiens, UniProt P04054); type: functional;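 further: confirmatory dose-response counterscreen on phospholipase A2, testing hits that came from an ultra-high-throughput screen for ATG4B inhibitors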
Sequence of Phospholipase A2 (P04054 whole entry): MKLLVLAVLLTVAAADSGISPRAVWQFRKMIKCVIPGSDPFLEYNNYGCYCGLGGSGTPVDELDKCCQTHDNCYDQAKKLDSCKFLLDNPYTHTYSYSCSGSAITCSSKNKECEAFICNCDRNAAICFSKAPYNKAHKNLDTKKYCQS

[7] = HEp-2 cell cytotoxicity, dose response, cytotoxicity control for RSV inhibitor project, HTS (AID 2410); type: functional; settings: human respiratory syncytial virus
Cysteine protease ATG4B = Cysteine protease ATG4B (Homo sapiens, UniProt Q9Y4P1); type: functional;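 further: Fluorescence-based dose-response confirmation assay measuring inhibition of ATG4B activity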
Sequence of Cysteine protease ATG4B (Q9Y4P1 whole entry): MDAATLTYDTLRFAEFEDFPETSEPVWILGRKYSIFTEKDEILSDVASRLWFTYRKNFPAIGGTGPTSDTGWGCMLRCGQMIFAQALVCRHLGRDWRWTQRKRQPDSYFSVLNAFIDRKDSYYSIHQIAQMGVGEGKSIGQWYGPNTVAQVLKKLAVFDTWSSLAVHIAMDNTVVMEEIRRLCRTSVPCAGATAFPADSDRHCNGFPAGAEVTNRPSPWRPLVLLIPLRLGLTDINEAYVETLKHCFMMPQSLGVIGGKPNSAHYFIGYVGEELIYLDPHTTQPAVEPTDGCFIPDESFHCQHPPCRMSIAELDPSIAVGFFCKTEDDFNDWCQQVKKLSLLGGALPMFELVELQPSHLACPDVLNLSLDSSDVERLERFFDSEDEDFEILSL

Melanocortin receptor 4 = Melanocortin receptor 4 (Homo sapiens, UniProt P32245); type: functional, cell-based;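 further: Cell-based assay with luminescence read-out, confirmatory dose-response testing for agonist activity of biased ligands at MC4R; human U2OS cells with tagged receptor and beta-arrestin; potency of agonists that increase receptor coupling to beta-arrestin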
Sequence of Melanocortin receptor 4 (P32245 whole entry): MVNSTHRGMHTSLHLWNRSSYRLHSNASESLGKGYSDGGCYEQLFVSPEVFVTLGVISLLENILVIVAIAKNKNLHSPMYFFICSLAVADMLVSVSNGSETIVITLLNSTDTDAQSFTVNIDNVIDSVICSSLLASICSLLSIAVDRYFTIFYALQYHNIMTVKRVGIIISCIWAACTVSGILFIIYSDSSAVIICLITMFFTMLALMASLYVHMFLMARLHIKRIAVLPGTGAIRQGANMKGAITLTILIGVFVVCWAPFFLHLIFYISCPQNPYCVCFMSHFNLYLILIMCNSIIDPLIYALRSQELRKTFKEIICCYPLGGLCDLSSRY

[8] = molecular target: T2, Beta-adrenergic receptor kinase 1 (Homo sapiens, UniProt P25098); experiment: aptamer displacement from bead-bound GRK2 – biochemical, cherry pick 1, bead flow cytometry, dose response (AID 504500)
T2 sequence (P25098 whole entry): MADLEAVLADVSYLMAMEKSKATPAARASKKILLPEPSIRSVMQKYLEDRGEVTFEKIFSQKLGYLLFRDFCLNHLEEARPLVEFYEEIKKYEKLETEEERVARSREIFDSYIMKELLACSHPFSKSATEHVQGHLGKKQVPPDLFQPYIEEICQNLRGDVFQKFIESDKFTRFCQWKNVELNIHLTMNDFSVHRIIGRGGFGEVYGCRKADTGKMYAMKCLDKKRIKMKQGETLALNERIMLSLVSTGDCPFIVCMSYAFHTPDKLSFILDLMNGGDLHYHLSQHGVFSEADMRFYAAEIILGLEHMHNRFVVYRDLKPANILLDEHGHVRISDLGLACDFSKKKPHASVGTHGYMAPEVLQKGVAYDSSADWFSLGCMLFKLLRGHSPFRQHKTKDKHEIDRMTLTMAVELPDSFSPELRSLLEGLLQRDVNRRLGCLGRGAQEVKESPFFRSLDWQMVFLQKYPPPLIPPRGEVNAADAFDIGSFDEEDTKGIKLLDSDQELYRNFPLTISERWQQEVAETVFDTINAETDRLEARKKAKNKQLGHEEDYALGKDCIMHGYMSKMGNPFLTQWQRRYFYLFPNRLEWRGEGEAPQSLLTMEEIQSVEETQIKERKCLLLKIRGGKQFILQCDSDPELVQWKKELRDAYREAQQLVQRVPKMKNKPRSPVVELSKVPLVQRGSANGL

Caspase-6 = molecular target: T3, Caspase-6 (Homo sapiens, UniProt P55212); experiment: human caspase-6 inhibitors, dose response, biochemical, VEID-R110 fluorescence, cherry-pick (AID 720632)
T3 sequence (P55212 whole entry): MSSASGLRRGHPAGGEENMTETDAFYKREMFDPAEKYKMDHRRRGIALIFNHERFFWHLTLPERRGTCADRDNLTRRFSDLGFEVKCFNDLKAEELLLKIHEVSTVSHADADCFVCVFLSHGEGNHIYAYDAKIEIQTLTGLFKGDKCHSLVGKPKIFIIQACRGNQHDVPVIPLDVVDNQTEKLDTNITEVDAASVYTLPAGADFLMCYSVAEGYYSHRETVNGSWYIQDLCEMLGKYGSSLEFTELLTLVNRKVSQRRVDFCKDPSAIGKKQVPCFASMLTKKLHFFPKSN

[9] = molecular target: T4, Carboxy-terminal domain RNA polymerase II polypeptide A small phosphatase 1 (Homo sapiens, UniProt Q9GZU7); experiment: inhibitors of CTDSP1, concentration-response testing, biochemical assay, absorbance-based, actives from ultra-high-throughput screening (AID 540297); type: functional
T4 sequence (Q9GZU7 whole entry): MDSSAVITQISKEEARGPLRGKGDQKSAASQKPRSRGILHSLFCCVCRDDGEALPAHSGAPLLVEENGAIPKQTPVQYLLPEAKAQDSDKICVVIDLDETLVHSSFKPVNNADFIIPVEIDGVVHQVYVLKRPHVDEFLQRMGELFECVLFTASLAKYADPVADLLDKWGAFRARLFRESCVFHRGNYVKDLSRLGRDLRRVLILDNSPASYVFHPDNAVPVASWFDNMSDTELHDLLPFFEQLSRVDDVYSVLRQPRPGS

[10] = molecular target: T5, Apoptotic protease-activating factor 1 (Homo sapiens, UniProt O14727); experiment: SAR analysis of small molecule Activators of Apaf-1 in a Fluorescent assay.; type: functional; settings: read-out: EC50_Mean;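 further: caspase-3 cleavage of fluorogenic Rh110 DEVD substrate downstream of apoptosome activation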
T5 sequence (O14727 whole entry): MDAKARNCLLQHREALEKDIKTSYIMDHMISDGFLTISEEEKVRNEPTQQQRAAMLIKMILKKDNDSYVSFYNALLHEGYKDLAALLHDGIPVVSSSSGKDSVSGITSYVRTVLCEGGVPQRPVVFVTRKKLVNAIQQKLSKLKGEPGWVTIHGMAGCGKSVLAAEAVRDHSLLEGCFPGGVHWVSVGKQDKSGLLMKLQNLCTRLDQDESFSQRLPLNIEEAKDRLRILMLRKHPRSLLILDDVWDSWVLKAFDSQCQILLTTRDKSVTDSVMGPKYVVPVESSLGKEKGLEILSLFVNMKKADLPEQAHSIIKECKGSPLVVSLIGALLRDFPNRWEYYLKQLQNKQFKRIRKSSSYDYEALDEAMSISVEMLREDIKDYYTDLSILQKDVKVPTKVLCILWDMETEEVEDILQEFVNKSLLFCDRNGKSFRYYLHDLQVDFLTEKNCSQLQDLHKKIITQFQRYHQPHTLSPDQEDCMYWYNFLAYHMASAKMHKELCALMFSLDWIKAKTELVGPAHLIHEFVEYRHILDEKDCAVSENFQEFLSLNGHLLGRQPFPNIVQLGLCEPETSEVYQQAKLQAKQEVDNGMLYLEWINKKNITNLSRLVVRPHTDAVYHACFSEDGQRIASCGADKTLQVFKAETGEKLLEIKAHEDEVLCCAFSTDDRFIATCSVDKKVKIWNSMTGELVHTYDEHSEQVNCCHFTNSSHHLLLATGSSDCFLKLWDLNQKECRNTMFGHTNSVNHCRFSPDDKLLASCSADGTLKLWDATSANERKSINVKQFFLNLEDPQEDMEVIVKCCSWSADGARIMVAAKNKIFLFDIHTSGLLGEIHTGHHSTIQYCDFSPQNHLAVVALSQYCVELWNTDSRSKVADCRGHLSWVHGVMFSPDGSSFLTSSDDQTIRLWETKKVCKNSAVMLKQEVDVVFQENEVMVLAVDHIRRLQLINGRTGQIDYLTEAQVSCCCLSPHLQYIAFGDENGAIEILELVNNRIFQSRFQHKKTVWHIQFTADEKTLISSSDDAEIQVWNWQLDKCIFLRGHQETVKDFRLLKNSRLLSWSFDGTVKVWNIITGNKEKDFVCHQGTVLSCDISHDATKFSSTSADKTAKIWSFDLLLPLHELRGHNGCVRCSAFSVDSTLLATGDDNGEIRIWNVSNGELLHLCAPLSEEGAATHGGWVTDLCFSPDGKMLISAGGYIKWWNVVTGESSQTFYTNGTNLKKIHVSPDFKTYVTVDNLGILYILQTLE

[11] = molecular target: DNA (cytosine-5)-methyltransferase 1 (Homo sapiens, UniProt P26358); experiment: DNMT1 methyltransferase inhibitors, confirmation, biochemical, fluorescent molecular beacon (AID 602386); type: functional
[12] = molecular target: T6, Aryl hydrocarbon receptor (Homo sapiens, UniProt P35869); settings: Potency;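 further: confirmatory quantitative high-throughput screen measuring activation of the AhR signaling pathway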
T6 sequence (P35869 whole entry): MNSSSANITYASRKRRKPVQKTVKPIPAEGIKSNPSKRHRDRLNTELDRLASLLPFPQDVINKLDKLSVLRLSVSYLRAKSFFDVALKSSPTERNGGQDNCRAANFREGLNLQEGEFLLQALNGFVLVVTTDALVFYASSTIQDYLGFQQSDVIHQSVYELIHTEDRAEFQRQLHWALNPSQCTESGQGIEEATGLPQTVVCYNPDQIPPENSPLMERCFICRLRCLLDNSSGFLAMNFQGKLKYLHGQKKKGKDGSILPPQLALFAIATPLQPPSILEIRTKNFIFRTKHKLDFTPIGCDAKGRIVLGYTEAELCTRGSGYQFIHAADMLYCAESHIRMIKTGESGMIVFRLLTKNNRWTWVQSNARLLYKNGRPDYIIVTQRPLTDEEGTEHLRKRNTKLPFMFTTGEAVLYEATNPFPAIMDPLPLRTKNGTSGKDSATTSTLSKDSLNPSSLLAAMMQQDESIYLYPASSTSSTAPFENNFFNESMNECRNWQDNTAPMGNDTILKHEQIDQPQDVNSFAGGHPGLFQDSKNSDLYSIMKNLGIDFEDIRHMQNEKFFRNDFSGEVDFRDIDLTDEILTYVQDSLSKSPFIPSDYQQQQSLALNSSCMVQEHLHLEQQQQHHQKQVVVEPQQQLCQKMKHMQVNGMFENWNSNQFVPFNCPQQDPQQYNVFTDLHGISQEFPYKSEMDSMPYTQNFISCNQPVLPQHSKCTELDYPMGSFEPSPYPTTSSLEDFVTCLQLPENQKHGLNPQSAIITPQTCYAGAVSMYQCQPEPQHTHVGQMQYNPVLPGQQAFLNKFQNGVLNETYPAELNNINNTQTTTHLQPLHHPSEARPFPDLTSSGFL

[13] = THP-1 cell cytotoxicity, cytotoxicity control, set 4 (AID 504911); type: functional; settings: Mycobacterium tuberculosis
[14] = molecular target: DNA dC->dU-editing enzyme APOBEC-3A (Homo sapiens, UniProt P31941); experiment: SAR analysis of small molecule inhibitors of APOBEC3A DNA Deaminase via a fluorescence-based single-stranded DNA deaminase assay - Set 2.; type: functional; settings: read-out: IC50_Mean
Sequence of DNA dC->dU-editing enzyme APOBEC-3A (P31941 whole entry): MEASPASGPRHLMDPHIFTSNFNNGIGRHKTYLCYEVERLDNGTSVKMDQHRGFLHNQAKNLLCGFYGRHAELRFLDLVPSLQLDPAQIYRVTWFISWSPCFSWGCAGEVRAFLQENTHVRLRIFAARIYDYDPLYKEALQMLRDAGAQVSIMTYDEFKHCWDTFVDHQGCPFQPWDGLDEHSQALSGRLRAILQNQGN

[15] = molecular target: DNA dC->dU-editing enzyme APOBEC-3G (Homo sapiens, UniProt Q9HC16); experiment: SAR analysis of small molecule inhibitors of APOBEC3G DNA Deaminase via a fluorescence-based single-stranded DNA deaminase assay - Set 2.; type: functional; settings: read-out: IC50_Mean
Sequence of DNA dC->dU-editing enzyme APOBEC-3G (Q9HC16 whole entry): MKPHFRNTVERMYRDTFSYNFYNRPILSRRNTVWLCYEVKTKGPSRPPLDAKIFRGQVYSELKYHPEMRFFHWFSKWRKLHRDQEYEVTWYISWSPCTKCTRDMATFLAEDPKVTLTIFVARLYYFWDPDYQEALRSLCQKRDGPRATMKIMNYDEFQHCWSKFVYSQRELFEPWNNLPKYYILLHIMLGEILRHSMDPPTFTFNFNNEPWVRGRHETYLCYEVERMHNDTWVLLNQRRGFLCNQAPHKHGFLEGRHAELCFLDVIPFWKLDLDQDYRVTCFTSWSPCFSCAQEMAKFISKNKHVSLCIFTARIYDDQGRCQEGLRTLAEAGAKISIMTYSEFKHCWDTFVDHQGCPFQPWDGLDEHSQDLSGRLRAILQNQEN

[16] = molecular target: Glucose-6-phosphate 1-dehydrogenase (Homo sapiens, UniProt P11413); experiment: human G6PD enzyme inhibitors, dose response, selectivity assay for P. falciparum G6PD inhibitor project, biochemical, fluorescence (AID 504792); type: functional

## O=C(Nc1nnc(C(F)(F)F)s1)C1COc2ccccc2O1 (configuration not stated)
[1]
  IC50: 1.55 µM (active)
[2]
  IC50: 1.26 µM (active)
[3]
  EC50: 6.26 µM (active)

## CCn1cc(C(=O)NCCCN2CCC(C)CC2)c(=O)c2cc(S(=O)(=O)N(C)C3CCCCC3)ccc21
[1]
  IC50: 7.24 µM (active)
[2]
  IC50: 7.94 µM (active)

## CCCN(CC(=O)Nc1ccccc1OC)C(=O)Cc1ccc2c(c1)CCC2
[4]
  IC50: 19.5 µM (active)
[5]
  IC50: 1.32 µM (active)
[6]
  IC50: 4.79 µM (active)

## O=C(CCCn1c(=S)[nH]c2cc3c(cc2c1=O)OCO3)N1CCN(c2ccc(F)cc2)CC1
Phospholipase A2
  IC50: 7.34 µM (active)
[7]
  CC50: 26.2 µM (active)
Cysteine protease ATG4B
  IC50: 13.5 µM (active)

## Cc1ccc2[nH]c(=O)c3cc(C(=O)N(CCCOC(C)C)Cc4ccco4)sc3c2c1
Melanocortin receptor 4
  EC50: > 89.2 µM (inactive)

## CCOc1ccc(CCNC(=O)C2CC(C)=CCC2C(=O)O)cc1OCC (configuration not stated)
[8]
  EC50: 51.3 µM (inactive)
Caspase-6
  AC50: 15.5 µM (active)
[9]
  IC50: 21 µM (active)

## COC(=O)C(C)(N)Cc1c[nH]c2ccccc12 (configuration not stated)
[10]
  EC50: > 100 µM (inactive)

## COc1cc(/C=C(\CCC(=O)O)c2nc3ccccc3s2)ccc1OCC(=O)Nc1c(Cl)cccc1Cl
[11]
  IC50: 10.1 µM (active)
[9]
  IC50: 2.3 µM (active)

## N[C@@H](Cc1c[nH]c2ccc(O)cc12)C(=O)O [OXITRIPTAN]
[12]
  AC50: 39.8 µM (inconclusive)

## O=C(CSc1nccc(=O)[nH]1)NC1CCCCC1
[13]
  CC50: > 100 µM (active)

## Cc1nc2sc3c(c2c2n[nH]c(=S)n12)CCCC3
[14]
  IC50: > 99 µM (inactive)
[15]
  IC50: 0.693 µM (active)

## CN(Cc1ccccc1)C(=O)c1nn2cccnc2c1Cl
[14]
  IC50: 73.8 µM (inactive)
[15]
  IC50: > 99 µM (inactive)

## Clc1cccc(Cl)c1CNc1ccc(N2CCCC2)cc1
Phospholipase A2
  IC50: 7.99 µM (active)
[16]
  IC50: > 80 µM (inactive)
Cysteine protease ATG4B
  IC50: 11.9 µM (active)
